Data set [1] in a line: Tolerability of intranasal betahistine in beagle dogs, Example 5. In kind it is in vivo. To be noted: dog. As for the experimental part: In this study, the pharmacokinetic profile of betahistine was evaluated after a single dose administration of betahistine in male and female beagle dogs (age 5-7 months; weight of 5-11 kg, within a range of 3 kg for each sex) for three routes of administration: oral, intranasal, and intravenous.
On Day 8 of the study, the animals that received oral BH at a dose of 12 mg/kg were administered the test betahistine composition intranasally at a dose of 40 mg betahistine dihydrochloride; the animals that received oral BH at a dose of 24 mg/kg were administered the test betahistine composition intranasally at a dose of 80 mg betahistine dihydrochloride; and the animals that received oral BH at a dose of 48 mg/kg were administered the test betahistine composition intranasally at a dose of 120 mg betahistine dihydrochloride. The test betahistine composition was delivered intranasally in a single dose via an Aptar nasal spray pump device at a total dose level of 40, 80 and 120 mg of betahistine dihydrochloride. Plasma samples were collected prior to dosing, and then at 5, 10, 20 and 30 min, 1, 2, 3, 6, 24 hours after dosing.

Data set [2] is described as follows: Toxicokinetic assessment of plasma betahistine and 2-PAA after intranasal betahistine (LC-MS/MS), Example 2. To be noted: both, beagle, dog, inhaled or intranasal.
Method: The safety and pharmacokinetic profile of intranasal betahistine was first evaluated in a single dose toxicology study in male and female beagle dogs (14-21 months of age, weight 8.2-11.8 kg). Both the vehicle and test article were delivered in a single dose via a nasal spray pump (Aptar Classic Line) with a delivery volume of 100 μL into both nostrils at total dose levels of 0 (vehicle), 4, 20 or 80 mg of betahistine dihydrochloride. Each treatment group was made up of 1 dog/sex.
Plasma concentrations were measured with liquid chromatographic tandem mass spectrometry (LC-MS/MS; SCIEX API 5000 for betahistine and SCIEX API 4000 for 2-pyridylacetic acid (2-PAA)) with a validated method. Betahistine-^13CD3 dihydrochloride and 2-PAA-D4 hydrochloride served as internal standards. The standard calibration range—using a plasma sample volume of 0.05 mL—for betahistine was 0.05 to 50 ng/mL and for 2-PAA it was 1 to 1000 ng/mL. The limit of quantitation was 0.05 ng/mL for betahistine and 1.0 ng/mL for 2-PAA.
In case of betahistine, the method involved a liquid-liquid extraction; in case of 2-PAA it involved protein precipitation. For betahistine, plasma samples were extracted under basic conditions with an organic solvent; the organic phase was dried and reconstituted in reconstitution solvent. Approximately 0.1 mL of the aqueous layer was transferred into polypropylene vials for LC-MS/MS analysis. For 2-PAA, plasma samples were precipitated with a mixture of organic solvents, supernatant was diluted and 0.12 mL was transferred into polypropylene vials for LC-MS/MS analysis. Sample analysis was conducted using reversed phase chromatography.

From US20200022963A1, “PHARMACEUTICAL COMPOSITION COMPRISING BETAHISTINE” (Otolanum AG, priority 2017, published 2020) come the findings set out here.

For `CNCCc1ccccn1` [betahistine], the salivation result in data set [1] (highest concentration betahistine group) was “salivation was noted in most animals”. Also, the sneezing in data set [1] (highest dose level) is recorded as 2/8. Further, the Tmax (in general, the time from dosing to the highest level) in data set [2] was 5 min. In addition, the values for the Cmax in data set [2] (4 mg), in data set [2] (20 mg) and in data set [2] (80 mg) were 26 ng/mL, 81 ng/mL and 248 ng/mL, respectively.
